Results taken from patent US8263095B2, “Methods of use for peptides having activities of insulin like growth factor-1” (Caregen Co., Ltd., priority 2006, dated 2012).
Bridge positions count the residues as written; N and C are the ends. Ends that are not written are not given here. * marks the point of attachment. FITC = O=C1OC2(c3ccc(O)cc3Oc3cc(O)ccc32)c2ccc(NC(=S)*)cc21; βAla = NCCC(=O)O

Tested on: receptors on surface of 3T3 fibroblasts
Test: Binding of fluorescence-labeled peptide to receptors on fibroblasts
Details: 1 mg/ml, 1 hr incubation, fluorescence and optical microscopy
Protocol: 3T3 fibroblasts were cultured in 250 ml-flasks containing EMEM (Eagle's minimal essential media, Gibco, U.S.A.) supplemented with […] FBS (fetal bovine serum). After 48-hr culture, the supernatant of the medium was discarded and the remainder was washed once with PBS (phosphate buffered saline). FITC-b-Ala-CDLRRLEMYC prepared in Preparation Example 4 was dissolved in DMSO and PBS to a concentration of 1 mg/ml and incubated for 1 hr with cells cultured. After removing medium, cells were completely washed and their surface was observed under fluorescence and optical microscopes.

FITC-b-Ala-Cys-Asp-Leu-Arg-Arg-Leu-Glu-Met-Tyr-Cys ({FITC-βAla}-CDLRRLEMYC; disulfide 1-10) [FITC-labeled peptide]
binding of the FITC-labeled peptide to receptors on cell (FIG. 12): binds to receptors on surface of fibroblasts
